Source: patent US12679848B2, “Plasma kallikrein inhibitors” (Merck Sharp & Dohme LLC, priority 2020, dated 2026)

Assays:
Human plasma kallikrein = biological target: T1, Human plasma kallikrein (Homo sapiens, UniProt P03952); assay: Plasma Kallikrein Assay; type: biochemical; conditions: purified Human plasma kallikrein 0.5 nM, substrate Acetyl-K-P-R-AFC, HEPES pH 7.4; read-out: PKal IC50
T1 construct: yields a heavy chain (371 amino acids) and a light chain (248 amino acids); The active site of plasma kallikrein is contained in the light chain; purchased Enzyme Research Laboratories
T1 sequence (P03952 391-638 limits assumed): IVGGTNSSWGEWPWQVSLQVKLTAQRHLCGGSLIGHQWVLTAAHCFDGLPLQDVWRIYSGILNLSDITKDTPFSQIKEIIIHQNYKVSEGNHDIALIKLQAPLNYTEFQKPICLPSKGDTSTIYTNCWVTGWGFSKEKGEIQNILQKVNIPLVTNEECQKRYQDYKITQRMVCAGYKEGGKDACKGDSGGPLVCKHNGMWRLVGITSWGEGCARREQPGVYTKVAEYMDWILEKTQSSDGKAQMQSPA
T1 sequence (P03952 20-390 partner limits assumed): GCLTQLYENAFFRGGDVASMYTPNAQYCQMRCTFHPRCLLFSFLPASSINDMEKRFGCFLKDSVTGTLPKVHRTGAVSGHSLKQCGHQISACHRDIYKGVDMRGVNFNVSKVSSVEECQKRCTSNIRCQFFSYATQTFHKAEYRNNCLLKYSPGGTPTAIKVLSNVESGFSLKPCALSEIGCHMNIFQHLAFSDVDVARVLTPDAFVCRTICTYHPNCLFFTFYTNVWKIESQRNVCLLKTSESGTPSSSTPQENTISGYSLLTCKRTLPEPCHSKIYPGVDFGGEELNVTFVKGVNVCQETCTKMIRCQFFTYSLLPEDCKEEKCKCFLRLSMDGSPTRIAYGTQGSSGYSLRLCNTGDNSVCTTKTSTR
Procedure: (§1) The effectiveness of a compound of the present invention as an inhibitor of plasma kallikrein can be determined using a relevant purified serine protease, and an appropriate synthetic substrate. The rate of hydrolysis of the chromogenic or fluorogenic substrate by the relevant serine protease was measured both in the absence and presence of compounds of the present invention. Assays were conducted at rt or at 37° C. […] A decrease in the rate of fluorescence change in the presence of inhibitor is indicative of enzyme inhibition. Such methods are known to one skilled in the art. The results of this assay are expressed as the half-maximal inhibitory concentrations (IC50), or the inhibitory constant, Ki.
Plasma kallikrein determinations were made in 50 mM HEPES buffer at pH 7.4 containing 150 mM NaCl, 5 mM CaCl2), and 0.1% PEG 8000 (polyethylene glycol; Fisher Scientific). Determinations were made using purified Human plasma kallikrein at a final concentration of 0.5 nM (Enzyme Research Laboratories) and the synthetic substrate, Acetyl-K—P—R-AFC (Sigma #C6608) at a concentration of […].
Times required to achieve equilibration between enzyme and inhibitor were determined in control experiments. […] IC50 was determined by inflection point from a four parameter logistic curve fit. Ki was calculated using the Cheng Prusoff equation, Ki=IC50/[…](1+([S]/Km)).

human factor XIa = human factor XIa (Homo sapiens, UniProt P03951); assay: Factor XIa Assay; type: biochemical; conditions: human factor XIa 0.04 nM, substrate GPR-AFC, 30 min pre-incubation, 25° C., pH 7.4; read-out: FXIa IC50
Chain of human factor XIa (P03951 388-625 limits assumed): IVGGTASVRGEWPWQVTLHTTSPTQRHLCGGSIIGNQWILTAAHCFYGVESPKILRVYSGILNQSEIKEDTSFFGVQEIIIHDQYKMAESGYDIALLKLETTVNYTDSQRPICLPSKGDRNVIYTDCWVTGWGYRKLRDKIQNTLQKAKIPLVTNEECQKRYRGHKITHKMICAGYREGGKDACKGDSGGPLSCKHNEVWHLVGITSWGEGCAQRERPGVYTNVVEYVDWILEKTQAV
Chain of human factor XIa (P03951 19-387 partner limits assumed): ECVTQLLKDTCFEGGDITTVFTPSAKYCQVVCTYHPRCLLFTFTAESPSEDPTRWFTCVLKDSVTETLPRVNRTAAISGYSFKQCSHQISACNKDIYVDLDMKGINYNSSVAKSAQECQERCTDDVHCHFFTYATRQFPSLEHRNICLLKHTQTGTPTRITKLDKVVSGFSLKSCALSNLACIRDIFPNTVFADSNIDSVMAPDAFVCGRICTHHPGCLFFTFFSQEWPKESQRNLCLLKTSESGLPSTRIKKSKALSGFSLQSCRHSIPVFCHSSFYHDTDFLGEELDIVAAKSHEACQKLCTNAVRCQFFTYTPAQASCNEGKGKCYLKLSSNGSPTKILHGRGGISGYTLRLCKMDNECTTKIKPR
Procedure: as §1, with “Coagulation factor XIa” for “plasma kallikrein”
Compounds were pre-incubated for 30 min at 25° C. with human (0.04 nM) factor XIa in 50 mM HEPES buffer with 150 mM sodium chloride, 5 mM calcium chloride, 0.1% PEG 8000, pH 7.4. factor XIa enzymatic activity was determined by addition of the substrate glycine-proline-arginine-7-amido-4-trifluoromethylcoumarin (GPR-AFC) and measurement of the fluorescence at 400/505 nm after a 60 min incubation at 25° C. The % inhibition for each data point was calculated from the data and analyzed using the log (inhibitor) vs. response four parameters equation to determine the half-maximal inhibitory concentrations (IC50). The IC50 were converted to equilibrium inhibitory constants (Ki) using the Cheng-Prusoff equation.

Compound	IC50 (Human plasma kallikrein) [nM]	IC50 (human factor XIa) [nM]
Nc1c(C(=O)N2CCC[C@@]3(C2)OC(=O)Nc2ccc(Cl)c(F)c23)cnn1Cc1cccc(Cl)c1 [Example 6, (R)-1'-(5-Amino-1-(3-chlorobenzyl)-1H-pyrazole-4-carbonyl)-6-chloro-5-fluorospiro[benzo[d][1,3]oxazine-4,3'-piperidin]-2(1H)-one]	0.5	177
Nc1c(C(=O)N2CCC[C@@]3(C2)OC(=O)Nc2ccc(Cl)c(F)c23)cnn1-c1ccc2cn[nH]c2c1 [Example 59, (R)-1'-(5-Amino-1-(1H-indazol-6-yl)-1H-pyrazole-4-carbonyl)-6-chloro-5-fluorospiro[benzo[d][1,3]oxazine-4,3'-piperidin]-2(1H)-one]	25.7	1160
Nc1c(C(=O)N2CCC[C@@]3(C2)OC(=O)Nc2ccc(Cl)c(F)c23)cnn1Cc1cccc(C(F)(F)F)c1 [Example 5, (R)-1'-(5-Amino-1-(3-(trifluoromethyl)benzy1)-1H-pyrazole-4-carbonyl)-6-chloro-5-fluorospiro[benzo[d][1,3]oxazine-4,3'-piperidin]-2(1H)-one]	1.7	726
CC(n1ncc(C(=O)N2CCC[C@@]3(C2)OC(=O)Nc2ccc(Cl)c(F)c23)c1N)C(F)(F)F (single isomer, unassigned) [Example 120, (R)-1'-(5-Amino-1-((R or S)-1,1,1-trifluoropropan-2-y1)-1H-pyrazole-4-carbonyl)-6-chloro-5-fluorospiro[benzo[d][1,3]oxazine-4,3'-piperidin]-2(1H)-one]	4.3	221
Nc1c(C(=O)N2CCC[C@@]3(C2)OC(=O)Nc2ccc(Cl)c(F)c23)cnn1C1(C(F)(F)F)CCOCC1 [Example 53, (R)-1'-(5-Amino-1-(4-(trifluoromethyl)tetrahydro-2H-pyran-4-y1)-1H-pyrazole-4-carbonyl)-6-chloro-5-fluorospiro[benzo[d][1,3]oxazine-4,3'-piperidin]-2(1H)-one]	8.7	1110
CC(C)(C)n1ncc(C(=O)N2CCC[C@@]3(C2)OC(=O)Nc2ccc(Cl)c(F)c23)c1N [Example 23, (R)-1'-(5-Amino-1-(tert-butyl)-1H-pyrazole-4-carbonyl)-6-chloro-5-fluorospiro[benzo[d][1,3]oxazine-4,3'-piperidin]-2(1H)-one]	13.5	2250
COc1cc(F)ccc1-n1ncc(C(=O)N2CCC[C@@]3(C2)OC(=O)Nc2ccc(Cl)c(F)c23)c1N [Example 100, (R)-1'-(5-Amino-1-(4-fluoro-2-methoxyphenyl)-1H-pyrazole-4-carbonyl)-6-chloro-5-fluorospiro[benzo[d][1,3]oxazine-4,3'-piperidin]-2(1H)-one]	9	375
Nc1c(C(=O)N2CCC[C@@]3(C2)OC(=O)Nc2ccc(Cl)c(F)c23)cnn1-c1ccccc1C1CC1 [Example 95, (R)-1'-(5-Amino-1-(2-cyclopropylphenyl)-1H-pyrazole-4-carbonyl)-6-chloro-5-fluorospiro[benzo[d][1,3]oxazine-4,3'-piperidin]-2(1H)-one]	10	305
CCC(c1ccccc1)n1ncc(C(=O)N2CCC[C@@]3(C2)OC(=O)Nc2ccc(Cl)c(F)c23)c1N (single isomer, unassigned) [Example 117, (R)-1'-(5-Amino-1-((R or S)-1-phenylpropyl)-1H-pyrazole-4-carbonyl)-6-chloro-5-fluorospiro[benzo[d][1,3]oxazine-4,3'-piperidin]-2(1H)-one]	0.9	30
CN(C)c1ccccc1Cn1ncc(C(=O)N2CCC[C@@]3(C2)OC(=O)Nc2ccc(Cl)c(F)c23)c1N [Example 41, (R)-1'-(5-Amino-1-(2-(dimethylamino)benzyl)-1H-pyrazole-4-carbonyl)-6-chloro-5-fluorospiro[benzo[d][1,3]oxazine-4,3'-piperidin]-2(1H)-one]	11.4	746
Nc1c(C(=O)N2CCC[C@@]3(C2)OC(=O)Nc2ccc(Cl)c(F)c23)cnn1C(c1ccccc1)C(F)(F)F (single isomer, unassigned) [Example 122, (R)-1'-(5-Amino-1-((R or S)-2,2,2-trifluoro-1-phenylethyl)-1H-pyrazole-4-carbonyl)-6-chloro-5-fluorospiro[benzo[d][1,3]oxazine-4,3'-piperidin]-2(1H)-one]	1	95
Nc1c(C(=O)N2CCC[C@@]3(C2)OC(=O)Nc2ccc(Cl)c(F)c23)cnn1C1CCCCC1 [Example 35, (R)-1'-(5-Amino-1-cyclohexyl-1H-pyrazole-4-carbonyl)-6-chloro-5-fluorospiro[benzo[d][1,3]oxazine-4,3'-piperidin]-2(1H)-one]	15.7	1080
Nc1c(C(=O)N2CCC[C@@]3(C2)OC(=O)Nc2ccc(Cl)c(F)c23)cnn1-c1ccc(C(=O)O)cc1 [Example 74, (R)-4-(5-Amino-4-(6-chloro-5-fluoro-2-oxo-1,2-dihydrospiro[benzo[d][1,3]oxazine-4,3'-piperidine]-l'-carbonyl)-1H-pyrazol-1-yl)benzoic acid]	8.4	378
CC(=O)Nc1ccc(-n2ncc(C(=O)N3CCC[C@@]4(C3)OC(=O)Nc3ccc(Cl)c(F)c34)c2N)cc1 [Example 67, (R)-N-(4-(5-Amino-4-(6-chloro-5-fluoro-2-oxo-1,2-dihydrospiro[benzo[d][1,3]oxazine-4,3'-piperidine]-1'-carbonyl)-1H-pyrazol-1-yl)phenyl)acetamide]	46.2	7320
Cc1cccc(-n2ncc(C(=O)N3CCC[C@@]4(C3)OC(=O)Nc3ccc(Cl)c(F)c34)c2N)c1C [Example 85, (R)-1'-(5-Amino-1-(2,3-dimethylphenyl)-1H-pyrazole-4-carbonyl)-6-chloro-5-fluorospiro[benzo[d][1,3]oxazine-4,3'-piperidin]-2(1H)-one]	9.2	1950
CCC(C1CCOCC1)n1ncc(C(=O)N2CCC[C@@]3(C2)OC(=O)Nc2ccc(Cl)c(F)c23)c1N (single isomer, unassigned) [Example 113, (R)-1'-(5-Amino-1-((S or R)-1-(tetrahydro-2H-pyran-4-yl)propyl)-1H-pyrazole-4-carbonyl)-6-chloro-5-fluorospiro[benzo[d][1,3]oxazine-4,3'-piperidin]-2(1H)-one]	0.6	2
Nc1c(C(=O)N2CCC[C@@]3(C2)OC(=O)Nc2ccc(Cl)c(F)c23)cnn1-c1cccc(Cl)c1 [Example 110, (R)-1'-(5-Amino-1-(3-chlorophenyl)-1H-pyrazole-4-carbonyl)-6-chloro-5-fluorospiro[benzo[d][1,3]oxazine-4,3'-piperidin]-2(1H)-one]	66.1	> 10000
CC[C@H](n1ncc(C(=O)N2CCC[C@@]3(C2)OC(=O)Nc2ccc(Cl)c(F)c23)c1N)C(F)(F)F (single isomer, unassigned) [Example 4]		9
CC[C@@H](n1ncc(C(=O)N2CCC[C@@]3(C2)OC(=O)Nc2ccc(Cl)c(F)c23)c1N)C(F)(F)F (single isomer, unassigned) [Example 3]		105
Nc1c(C(=O)N2CCC[C@@]3(C2)OC(=O)Nc2ccc(Cl)c(F)c23)cnn1-c1ccccc1OC(F)(F)F [Example 72, (R)-1'-(5-Amino-1-(2-(trifluoromethoxy)phenyl)-1H-pyrazole-4-carbonyl)-6-chloro-5-fluorospiro[benzo[d][1,3]oxazine-4,3'-piperidin]-2(1H)-one]		262
Nc1c(C(=O)N2CCC[C@@]3(C2)OC(=O)Nc2ccc(Cl)c(F)c23)cnn1-c1ccccc1 [Example 57, (R)-1'-(5-Amino-1-phenyl-1H-pyrazole-4-carbonyl)-6-chloro-5-fluorospiro[benzo[d][1,3]oxazine-4,3'-piperidin]-2(1H)-one]		4140
Nc1c(C(=O)N2CCC[C@@]3(C2)OC(=O)Nc2ccc(Cl)c(F)c23)cnn1Cc1ccccc1 [Example 8, (R)-1'-(5-Amino-1-benzyl-1H-pyrazole-4-carbonyl)-6-chloro-5-fluorospiro[benzo[d][1,3]oxazine-4,3'-piperidin]-2(1H)-one]		68
